In brackets after ≈: the same amount, converted by molar mass. Where two headings read alike, the source gives them in different places.
Tests used:
[1] = molecular target: Safetyscreen44 panel (Homo sapiens, UniProt P21728); conditions: D1 (h) (antagonist radioligand)
[2] = tested on: Safetyscreen44 panel
[3] = tested on: Neisseria gonorrhoeae strains; assay type: cell-based
From the text: Untreated controls and blank wells were included.

Sequence of Safetyscreen44 panel (Homo sapiens, UniProt P21728) (P21728 whole entry): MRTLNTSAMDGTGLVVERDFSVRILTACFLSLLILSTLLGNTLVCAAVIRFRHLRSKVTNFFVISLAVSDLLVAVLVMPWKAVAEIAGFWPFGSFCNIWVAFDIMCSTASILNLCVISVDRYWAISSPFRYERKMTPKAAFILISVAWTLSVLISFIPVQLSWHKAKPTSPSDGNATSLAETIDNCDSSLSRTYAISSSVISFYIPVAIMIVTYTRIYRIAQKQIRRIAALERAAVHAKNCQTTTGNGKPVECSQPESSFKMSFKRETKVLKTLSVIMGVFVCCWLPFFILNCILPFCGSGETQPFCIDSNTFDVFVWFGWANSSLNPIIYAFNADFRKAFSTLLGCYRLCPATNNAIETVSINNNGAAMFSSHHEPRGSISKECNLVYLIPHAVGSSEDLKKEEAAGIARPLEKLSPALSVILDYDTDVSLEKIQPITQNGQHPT

Structure (SMILES): C[C@H]1COc2c(N3CC[C@@H](Nc4ncccn4)C3)c(F)cc3c(=O)c(C(=O)O)cn1c23 [KSN-82-L22]
- % inhibition [1]: −15.4033%
- % inhibition ([2]; KV channel (antagonist radioligand)): −4.644%
- % inhibition ([2]; alpha 2A (h) (antagonist radioligand)): 4.4791%
- MIC ([3]; strain 2007NG046, resistance PEN-R CFM-R CPD-R CIP-R): 4 µg/mL (≈ 9.4 µM)
- MIC ([3]; strain 2008NG057, resistance PEN-R CFM-R CPD-R CIP-R): 2 µg/mL (≈ 4.7 µM)
- MIC ([3]; strain 2008NG097, resistance PEN-R CFM-R CPD-R CIP-R): 2 µg/mL (≈ 4.7 µM)
- MIC ([3]; strain 2009NG514, resistance PEN-R CPD-R CIP-R): 2 µg/mL (≈ 4.7 µM)
- MIC ([3]; strain 2010NG122, resistance PEN-R CFM-R CIP-R): 2 µg/mL (≈ 4.7 µM)
- MIC ([3]; strain ATCC 49226, resistance PEN-I TET-I): ≤0.03125 µg/mL
- MIC ([3]; strain ATCC 700825, resistance —): ≤0.03125 µg/mL
- MIC ([3]; strain BAA-1833, resistance PEN-I TET-I): ≤0.03125 µg/mL
- MIC ([3]; strain BAA-1838, resistance —): ≤0.03125 µg/mL
- MIC ([3]; strain CCUG 57595, resistance —): ≤0.03125 µg/mL
- MIC ([3]; strain CCUG 57596, resistance CIP-I PEN-I TET-R): 0.125 µg/mL (≈ 0.294 µM)
- MIC ([3]; strain CCUG 57597, resistance FEP-NS FOX-I CAZ-NS CIP-R OFX-R PEN-R TET-R): 2 µg/mL (≈ 4.7 µM)
- MIC ([3]; strain CCUG 57598, resistance FOX-R CAZ-NS CRO-NS CIP-R OFX-R PEN-R TET-R): 2 µg/mL (≈ 4.7 µM)
- MIC ([3]; strain CCUG 57599, resistance CIP-R OFX-R PEN-R TET-R): 0.5 µg/mL (≈ 1.18 µM)
- MIC ([3]; strain CCUG 57600, resistance CIP-R OFX-R PEN-R TET-R): 1 µg/mL (≈ 2.35 µM)
- MIC ([3]; strain CCUG 57601, resistance PEN-R TET-R): ≤0.03125 µg/mL
- MIC ([3]; strain CCUG 57602, resistance PEN-I TET-I): 0.0625 µg/mL (≈ 0.147 µM)
- MIC ([3]; strain FDA-CDC AR-BANK#0165, resistance CIP-R PEN-I TET-R): 2 µg/mL (≈ 4.7 µM)
- MIC ([3]; strain FDA-CDC AR-BANK#0166, resistance CIP-R PEN-I TET-R): 2 µg/mL (≈ 4.7 µM)
- MIC ([3]; strain FDA-CDC AR-BANK#0167, resistance CIP-S PEN-S TET-I): ≤0.03125 µg/mL
- MIC ([3]; strain FDA-CDC AR-BANK#0168, resistance CIP-R PEN-I TET-R): 1 µg/mL (≈ 2.35 µM)
- MIC ([3]; strain FDA-CDC AR-BANK#0169, resistance CIP-R PEN-I TET-R): 2 µg/mL (≈ 4.7 µM)
- MIC ([3]; strain FDA-CDC AR-BANK#0170, resistance CIP-R PEN-I TET-R): 2 µg/mL (≈ 4.7 µM)
- MIC ([3]; strain FDA-CDC AR-BANK#0171, resistance CIP-R PEN-I TET-R): 1 µg/mL (≈ 2.35 µM)
- MIC ([3]; strain FDA-CDC AR-BANK#0172, resistance CIP-R PEN-R TET-R): 1 µg/mL (≈ 2.35 µM)
- MIC ([3]; strain FDA-CDC AR-BANK#0173, resistance CIP-R PEN-R TET-R): 2 µg/mL (≈ 4.7 µM)
- MIC ([3]; strain FDA-CDC AR-BANK#0174, resistance CIP-R PEN-R TET-R): 2 µg/mL (≈ 4.7 µM)
- MIC ([3]; strain FDA-CDC AR-BANK#0175, resistance CIP-S PEN-I TET-I): ≤0.03125 µg/mL
- MIC ([3]; strain FDA-CDC AR-BANK#0176, resistance CIP-R PEN-R TET-R): 2 µg/mL (≈ 4.7 µM)
- MIC ([3]; strain FDA-CDC AR-BANK#0177, resistance CIP-S PEN-I TET-R): ≤0.03125 µg/mL
- MIC ([3]; strain FDA-CDC AR-BANK#0178, resistance CIP-R PEN-R TET-R): 2 µg/mL (≈ 4.7 µM)
- MIC ([3]; strain FDA-CDC AR-BANK#0179, resistance CIP-S PEN-S TET-I): ≤0.03125 µg/mL
- MIC ([3]; strain FDA-CDC AR-BANK#0180, resistance CIP-R PEN-I TET-R): 2 µg/mL (≈ 4.7 µM)
- MIC ([3]; strain FDA-CDC AR-BANK#0181, resistance CIP-S PEN-I TET-R): ≤0.03125 µg/mL
- MIC ([3]; strain FDA-CDC AR-BANK#0182, resistance CIP-R PEN-I TET-R): 2 µg/mL (≈ 4.7 µM)
- MIC ([3]; strain FDA-CDC AR-BANK#0183, resistance CIP-R PEN-R TET-R): 2 µg/mL (≈ 4.7 µM)
- MIC ([3]; strain FDA-CDC AR-BANK#0184, resistance CIP-R PEN-R TET-R): 2 µg/mL (≈ 4.7 µM)
- MIC ([3]; strain FDA-CDC AR-BANK#0185, resistance CIP-R PEN-I TET-R): 2 µg/mL (≈ 4.7 µM)
- MIC ([3]; strain FDA-CDC AR-BANK#0186, resistance CIP-R PEN-R TET-R): 1 µg/mL (≈ 2.35 µM)
- MIC ([3]; strain FDA-CDC AR-BANK#0187, resistance CIP-R PEN-I TET-R): 2 µg/mL (≈ 4.7 µM)
- MIC ([3]; strain FDA-CDC AR-BANK#0188, resistance CIP-R PEN-I TET-R): 1 µg/mL (≈ 2.35 µM)
- MIC ([3]; strain FDA-CDC AR-BANK#0189, resistance CIP-R PEN-R TET-R): 2 µg/mL (≈ 4.7 µM)
- MIC ([3]; strain FDA-CDC AR-BANK#0190, resistance CIP-R PEN-R TET-R): 2 µg/mL (≈ 4.7 µM)
- MIC ([3]; strain FDA-CDC AR-BANK#0191, resistance CIP-R PEN-R TET-R): 2 µg/mL (≈ 4.7 µM)
- MIC ([3]; strain FDA-CDC AR-BANK#0192, resistance CIP-R PEN-R TET-R): 2 µg/mL (≈ 4.7 µM)

Source: patent US20210261570A1, “ANTIBIOTIC RESISTANCE BREAKERS” (KING'S COLLEGE LONDON, priority 2017, published 2021)
